Data set [1] has as its system A2780. Put plainly: Cytotoxicity against human A2780 cells after 96 hrs by MTT assay. Format: functional, cell-based. The conditions noted are these: A2780, 96 h. Background: Tetrazolium dyes change colour on reduction, which living cells bring about.
For data set [2], the system named is U2OS. Put plainly: Inhibition of Aurora kinase in nocodazole-synchronized human U2OS cells assessed as reduction of histone H3 serine-10 phosphorylation at 0.07 to 10 uM after 2 hrs immunofluorescence microscopy. Format: cell-based.
In data set [3] the test system is MCF7. Put plainly: Induction of p53 protein expression in human MCF7 cells at 150 nM after 7 hrs by fluorescent microscopy. Format: functional, cell-based.
Data set [4] relates to MIA PaCa-2. Put plainly: Cytotoxicity against human MIAPaCa2 cells after 96 hrs by MTT assay. It counts as functional, cell-based. The conditions noted are these: MIA PaCa-2, 96 h.
For data set [5], the system named is U2OS. In words: Inhibition of Aurora kinase in asynchronous human U2OS cells assessed as reduction of histone H3 serine-10 phosphorylation at 150 nM after 7 hrs immunofluorescence microscopy. Format: cell-based.
Data set [6] has as its target Cyclin-dependent kinase 1 (Homo sapiens, UniProt P06493). Put plainly: Inhibition of CDK1.
The nature of data set [7]: Oral bioavailability in Wistar rat at 10 mg/kg after 24 hrs by LC/MS/MS analysis. Format: ADME, organism-based. The conditions noted are these: in vivo.
Data set [8] in a line: Inhibition of Aurora kinase in human A549 cells assessed as concentration required for half-maximal inhibition of histone H3 serine-10 phosphorylation after 7 hrs immunofluorescence microscopy. It counts as cell-based. The conditions noted are these: A549, 7 h.
Data set [9] deals with Cyclin-dependent kinase 9 (Homo sapiens, UniProt P50750). In words: Inhibition of CDK9.
Sequence of Cyclin-dependent kinase 9 (P50750 whole entry): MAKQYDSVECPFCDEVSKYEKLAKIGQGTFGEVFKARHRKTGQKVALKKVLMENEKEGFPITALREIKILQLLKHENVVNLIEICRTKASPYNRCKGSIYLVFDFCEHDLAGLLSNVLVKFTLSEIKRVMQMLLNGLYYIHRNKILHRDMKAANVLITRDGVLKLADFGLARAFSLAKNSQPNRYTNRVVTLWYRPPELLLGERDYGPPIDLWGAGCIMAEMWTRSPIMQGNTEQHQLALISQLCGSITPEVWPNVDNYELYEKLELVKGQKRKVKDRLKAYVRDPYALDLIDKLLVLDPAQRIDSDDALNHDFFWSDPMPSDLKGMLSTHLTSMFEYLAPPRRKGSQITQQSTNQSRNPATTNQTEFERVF
Data set [10] has as its system NCI-H460. Put plainly: Cytotoxicity against human NCI-H460 cells after 96 hrs by MTT assay. It counts as functional, cell-based. The settings on record: NCI-H460, 96 h.
Data set [11] has as its system A549. Put plainly: Effect on mitotic index in asynchronous human A549 cells assessed as appearance of misaligned chromosomes with shortened spindle fibres at 0.5 uM after 8 hrs […]. Format: functional, cell-based. Background: A flow cytometer gives signals particle by particle.
The test system of data set [12] is Liver microsomes. In words: Intrinsic clearance in rat liver microsomes by LC/MS/MS analysis. It counts as ADME, Microsome. In general terms: Microsomes from liver hold many membrane-bound enzymes, among them those of drug oxidation.
Data set [13] concerns HCT-116. In words: Cytotoxicity against human HCT116 cells after 96 hrs by MTT assay. It counts as functional, cell-based. The conditions noted are these: HCT-116, 96 h.
In data set [14] the target is Aurora kinase B (Homo sapiens, UniProt Q96GD4). Put plainly: Inhibition of human recombinant Aurora B after 60 mins.
Sequence of Aurora kinase B (Q96GD4 whole entry): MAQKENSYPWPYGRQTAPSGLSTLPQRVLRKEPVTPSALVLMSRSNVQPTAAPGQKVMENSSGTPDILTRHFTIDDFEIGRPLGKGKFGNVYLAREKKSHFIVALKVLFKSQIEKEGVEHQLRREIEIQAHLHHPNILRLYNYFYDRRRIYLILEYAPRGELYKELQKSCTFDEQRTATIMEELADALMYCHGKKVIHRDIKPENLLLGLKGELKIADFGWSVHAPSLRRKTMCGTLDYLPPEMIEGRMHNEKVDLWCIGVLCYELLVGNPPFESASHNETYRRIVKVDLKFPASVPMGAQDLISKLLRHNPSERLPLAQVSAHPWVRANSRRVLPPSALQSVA
Data set [15] relates to A549. In words: Cell cycle arrest in asynchronous human A549 cells assessed as accumulation of cyclin B-negative diploid and tetraploid cells at G1 phase at 2 uM after 24 hrs by FACS analysis. It counts as functional, cell-based.
For data set [16], the system named is HeLa. Put plainly: Cytotoxicity against human HeLa cells after 96 hrs by MTT assay. It counts as functional, cell-based.
For data set [17], the system named is CCRF-CEM. Put plainly: Cytotoxicity against human CCRF-CEM cells after 96 hrs by MTT assay. Format: functional, cell-based.
Data set [18] in a line: Elimination half life in Wistar rat at 10 mg/kg, po by LC/MS/MS analysis. It counts as ADME, organism-based. The settings on record: in vivo, read-out: beta t1/2 (converted). More on the design: dose 10 mg/kg, route oral.
The subject of data set [19] is HL-60. Put plainly: Cytotoxicity against human HL60 cells after 96 hrs by MTT assay. It counts as functional, cell-based. The settings on record: HL-60, 96 h.
The test system of data set [20] is HuP-T4. Put plainly: Cytotoxicity against human HUPT4 cells after 96 hrs by MTT assay. The settings on record: HuP-T4, 96 h. Format: functional, cell-based.
Data set [21] deals with COLO 205. In words: Cytotoxicity against human COLO205 cells after 96 hrs by MTT assay. Format: functional, cell-based. The conditions noted are these: COLO 205, 96 h.
A short description of data set [22]: Aqueous solubility by turbidimetric analysis. It counts as physicochemical.
In data set [23] the test system is HT-29. Put plainly: Cytotoxicity against human HT-29 cells after 96 hrs by MTT assay. Format: functional, cell-based. The conditions noted are these: HT-29, 96 h.
Data set [24] relates to MV4-11. In words: Cytotoxicity against human MV4-11 cells after 96 hrs by MTT assay. The settings on record: MV4-11, 96 h. Format: functional, cell-based.
The nature of data set [25]: AUC (0 to 24 hrs) in Wistar rat at 10 mg/kg, po after 24 hrs by LC/MS/MS analysis. Format: ADME, organism-based. Also noted: time < 24 hr, dose 10 mg/kg, route oral. The conditions noted are these: plasma.
The subject of data set [26] is SAOS-2. In words: Cytotoxicity against human Saos2 cells after 96 hrs by MTT assay. It counts as functional, cell-based. The settings on record: SAOS-2, 96 h.
Data set [27] relates to A549. Put plainly: Cell cycle arrest in asynchronous human A549 cells assessed as accumulation of cyclin B-negative diploid cells at G1 phase at 0.5 uM after 24 hrs by FACS analysis. Format: functional, cell-based.
Data set [28] is described as follows: Cmax in Wistar rat at 10 mg/kg, po after 24 hrs by LC/MS/MS analysis. The conditions noted are these: in vivo. Also noted: dose 10 mg/kg, route oral. Format: ADME, organism-based.
The target in data set [29] is T1, Aurora kinase A (Homo sapiens, UniProt O14965).
T1 sequence (O14965 whole entry): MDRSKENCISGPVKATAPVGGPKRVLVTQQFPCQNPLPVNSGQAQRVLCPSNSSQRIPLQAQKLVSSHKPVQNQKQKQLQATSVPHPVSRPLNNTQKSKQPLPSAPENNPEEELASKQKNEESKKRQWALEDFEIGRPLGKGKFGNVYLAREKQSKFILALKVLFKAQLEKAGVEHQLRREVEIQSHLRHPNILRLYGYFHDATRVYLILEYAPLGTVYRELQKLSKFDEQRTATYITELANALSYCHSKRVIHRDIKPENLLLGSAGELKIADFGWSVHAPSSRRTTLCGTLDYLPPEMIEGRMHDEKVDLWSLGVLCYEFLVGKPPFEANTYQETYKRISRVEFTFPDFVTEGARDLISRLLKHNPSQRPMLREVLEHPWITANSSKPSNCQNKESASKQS
In words: Inhibition of human recombinant Aurora A after 30 mins.

Data set [30] can be described thus: Octanol-aqueous buffer partition coefficient, log D at pH 7.4 by shake-flask method. Format: physicochemical.
The nature of data set [31]: Clearance in Wistar rat at 10 mg/kg, po after 24 hrs by LC/MS/MS analysis. Format: ADME, organism-based. Also noted: dose 10 mg/kg, route oral. The conditions noted are these: in vivo.
Data set [32] in a line: Apparent permeability across human Caco-2 cell membrane. Format: ADME, cell-based.
For data set [33], the system named is BXPC-3. In words: Cytotoxicity against human BxPC3 cells after 96 hrs by MTT assay. Format: functional, cell-based. The settings on record: BXPC-3, 96 h.
Data set [34] has as its system K562. Put plainly: Cytotoxicity against human K562 cells after 96 hrs by MTT assay. It counts as functional, cell-based. The settings on record: K562, 96 h.
Data set [35] in a line: Dissociation constant, pKa by pH-metric titration method. It counts as physicochemical.
Data set [36] in a line: Half life in rat liver microsomes by LC/MS/MS analysis. It counts as ADME, Microsome.
A short description of data set [37]: Fraction unbound in rat plasma by equilibrium dialysis. Format: ADME, cell-free.
In data set [38] the test system is A549. Put plainly: Cell cycle arrest in asynchronous human A549 cells assessed as accumulation of cyclin B-positive tetraploid cells at G2/M phase at 0.5 to 2 uM after 7 hrs by FACS analysis. Format: functional, cell-based.
A short description of data set [39]: Cytotoxicity against human MESSA cells after 96 hrs by MTT assay. It counts as functional, cell-based. The settings on record: MES-SA.
Data set [40] deals with Cyclin-dependent kinase 7 (Homo sapiens, UniProt P50613). In words: Inhibition of CDK7.
Sequence of Cyclin-dependent kinase 7 (P50613 whole entry): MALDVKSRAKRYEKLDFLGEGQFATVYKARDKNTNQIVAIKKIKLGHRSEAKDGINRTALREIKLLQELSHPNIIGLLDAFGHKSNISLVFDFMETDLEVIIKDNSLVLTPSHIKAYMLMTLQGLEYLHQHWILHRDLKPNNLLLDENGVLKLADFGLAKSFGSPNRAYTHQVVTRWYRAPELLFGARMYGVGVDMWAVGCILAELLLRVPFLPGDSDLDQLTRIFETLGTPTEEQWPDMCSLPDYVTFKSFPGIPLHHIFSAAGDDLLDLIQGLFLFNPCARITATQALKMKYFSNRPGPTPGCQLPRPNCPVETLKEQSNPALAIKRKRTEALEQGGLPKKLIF

Molecules are shown by their SMILES. ≈ marks a conversion by molar mass, not a printed value. Calls of active or inactive are those of the source. The calls are words filed in the database; no cut-off is given here.

Usually IC50 stands for the concentration needed to halve the response being measured. A word on the Ki: it is the dissociation constant of the complex between target and ligand, obtained from inhibition or displacement. As a reminder, the bioavailability is dose-corrected exposure relative to a reference, in per cent. Low values mean poor availability, high ones good availability. The term kinetic solubility denotes the concentration staying in solution when a stock, usually in DMSO, is diluted into the medium. A word on the AUC(0-t): it is exposure summed from dosing to a finite time, without extrapolation to infinity. Higher therefore signals high exposure. Usually Cmax stands for the maximum level reached in the sampled fluid or tissue. Broadly, the logD is the decadic logarithm of the distribution of all forms, ionised or not, between an organic phase and buffer at a given pH. A low value points to lower lipophilicity. Usually CL/F stands for clearance divided by bioavailability, as obtained after extravascular dosing. Broadly, the Papp is a coefficient for how fast a substance crosses the barrier. One may read the pKa as the pH at which an ionisable group is half protonated. A higher pKa goes with a weaker acid or stronger base. The fraction unbound is the share of the substance not bound to proteins or other matrix. High values mean weak binding, low ones extensive binding.

Sequence of Cyclin-dependent kinase 1 (P06493 whole entry): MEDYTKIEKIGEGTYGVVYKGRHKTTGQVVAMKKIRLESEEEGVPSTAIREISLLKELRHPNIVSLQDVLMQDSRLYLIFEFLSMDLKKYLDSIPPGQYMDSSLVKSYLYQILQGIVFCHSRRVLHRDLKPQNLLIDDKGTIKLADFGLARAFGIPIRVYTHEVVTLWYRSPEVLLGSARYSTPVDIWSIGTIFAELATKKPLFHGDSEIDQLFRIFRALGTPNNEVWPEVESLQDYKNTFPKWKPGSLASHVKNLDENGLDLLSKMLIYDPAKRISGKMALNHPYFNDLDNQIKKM

As to `Cc1nc(N)sc1-c1ccnc(Nc2cccc([N+](=O)[O-])c2)n1`, the half-maximal inhibitory concentration (IC50) amounted to 48 nM in data set [1] and 139 nM in [4]. For the same compound, the inhibition result in [2] was “Active”. The result in data set [3] and in [5] was Active.

Turning to `Cc1nc(C)c(-c2ccnc(Nc3ccc(N(C)C)cc3)n2)s1`, the Ki in [6] came out at 2520 nM; in [9], 575 nM; in [14] it was 15 nM; in data set [29], 6.9 nM; in data set [40], 4010 nM. Further, in data set [7], the bioavailability was found to be 7%. In addition, the IC50 in data set [8] is 2600 nM; in data set [10], 180 nM; in data set [1] it was 157 nM; in data set [13], 133 nM; in data set [16] it was 190 nM; in [17] it was 170 nM. For the same compound, the IC50 turned out to be 128 nM in data set [19]; 156 nM in [20]; 84 nM in data set [21]; 128 nM in data set [23]; 110 nM in [24]; 320 nM in [26]. The IC50 amounted to 93 nM in data set [33], 40 nM in data set [34], 177 nM in [4] and 110 nM in data set [39]. Further, the result in data set [11], in data set [15], in [27] and in [38] was Active. Further, the clearance in [12] came out at 296 µL/min/mg. The inhibition result in [2] was “Active”. For the same compound, the half-life in [18] was 4.4 h; in [36] it was 4.7 min. Further, the kinetic solubility in data set [22] was 20 µM (≈ 6.51 µg/mL). Further, the AUC(0-t) at 24 h in [25] was 6.9 µM·h. The compound further registered a Cmax in data set [28] of 900 nM. The same compound gave a logD in data set [30] of 1.33. The same compound had a CL/F in data set [31] of 70 mL/min/kg. Further, in data set [32], the Papp stood at 49.2 ×10⁻⁶ cm/s. For the same compound, the pKa in [35] was found to be 5.5. In [37], this compound yielded a fraction unbound of 0.96.

For the origin of these results see ChEMBL document CHEMBL1155519, “Discovery of N-phenyl-4-(thiazol-5-yl)pyrimidin-2-amine aurora kinase inhibitors” (J Med Chem, 2010).
